Source: patent publication US20220117890A1, “CANNABINOID EMULSIONS” (CORN PRODUCTS DEVELOPMENT, INC., priority 2020, published 2022)

Assays:
[1] = Plasma pharmacokinetics of CBD after single IV or oral administration; format: in vivo, male Sprague-Dawley rats; conditions: male, Sprague-Dawley, IV 2 mg/kg, rat
Description: Plasma pharmacokinetics following single intravenous cannabidiol (CBD solid) or oral administration (4 emulsions+1 non-emulsified oil) was investigated in male Sprague-Dawley rats. Rats were used for this study because they are an accepted model for characterization of pharmacokinetics of formulations being developed for humans. Twelve (12) single-catheterized rats (275-300 g, jugular vein catheter) were obtained from Envigo and divided into 6 groups of 2 animals each. Rats were acclimated for 5 days; the temperature was controlled from 68-79° F., the humidity was controlled from 20% to 70% and the light source was fluorescent lamps with a light/dark cycle of 12/12 hours on/off. No concurrent medication was administered during the study, and all rats had access (ad-libitum) to Tekland Rodent Chow 2018 (Envigo) and tap water throughout the live phase. All animals were randomly placed. Post acclimation, all animals received a single IV (tail vein injection) or oral treatment of one of the nanoemulsions, a non-emulsified oil, or a positive control based on Table 7. Group 1 animals received a single IV injection while Groups 2-6 received a single oral administration. The non-emulsified oil is CBD isolate dissolved in MCT oil. WFI=sterile water for injection. Dosing and dose volume are in […] (body weight) and mL/kg (body weight) respectively.
The CBD concentration in blood plasma samples obtained at various collection times (15, 30, 60, 120, 180, 240, 480 minutes and 24 hr) was determined.
The following pharmacokinetic parameters were determined: Bioavailability absolute (Fabs), Bioavailability relative to non-emulsified (Frel), the time at maximum concentration, the maximum concentration, and half-life (T1/2).

[2] = as above; format: in vivo, male Sprague-Dawley rats; conditions: male, Sprague-Dawley, IV 2 mg/kg, rat, read-out: Concentration (CBD in blood plasma)

## C=C(C)[C@@H]1CCC(C)=C[C@H]1c1c(O)cc(CCCCC)cc1O [CBD solid, cannabidiol]
[1]
  AUC(0-inf): 2010 ng·h/mL
  AUC(0-t): 1980 ng·h/mL
[1]; read-out: Cmax (maximum concentration)
  Cmax: 1560 ng/mL
[1]; read-out: Tmax (time at maximum concentration)
  Tmax: 15 min
[1]; time 30 min, read-out: Concentration (CBD in blood plasma)
  concentration at 30 min: 481 ng/mL
[1]; time 60 min, read-out: Concentration (CBD in blood plasma)
  concentration at 60 min: 341 ng/mL
[1]; time 120 min, read-out: Concentration (CBD in blood plasma)
  concentration at 120 min: 178 ng/mL
[1]; time 180 min, read-out: Concentration (CBD in blood plasma)
  concentration at 180 min: 89.2 ng/mL
[1]; time 240 min, read-out: Concentration (CBD in blood plasma)
  concentration at 240 min: 44.2 ng/mL
[1]; time 480 min, read-out: Concentration (CBD in blood plasma)
  concentration at 480 min: 10.6 ng/mL
[1]; time 24 hr, read-out: Concentration (CBD in blood plasma)
  concentration at 24 hr: 5.2 ng/mL
[2]
  concentration at 5 min: 1560 ng/mL
